The values below are quoted from earlier work in US20070031339A1, “Contrast agents” (priority 2003, published 2007).

The conditions of this series: aqueous solution at 350 mg iodine/ml, 37° C.

Turning to `C[C@H](O)C(=O)Nc1c(I)c(C(=O)NC(CO)CO)c(I)c(C(=O)NC(CO)CO)c1I` [lopamidol], the Viscosity is listed as 7.6 mPas.
